Laboratory results: US10266535B2, “Inhibitor of FLT3 kinase and use thereof” (HEFEI INSTITUTES OF PHYSICAL SCIENCE, CHINESE ACADEMY OF …, priority 2015, dated 2019)
Where a name gives a salt, the structure may show the parent alone. Read-outs that look alike come from different tables or passages of the source.

Assays:
[1] = system: MV4-11 (expressing FLT3/ITD mutant gene); test: Cell proliferation, Cell Titer-Glo, MV4-11; type: cell-based; conditions: Homo sapiens
Protocol: (§1) The above cell lines were constructed by our laboratory.
(§2) The number of viable cells was determined by quantification of ATP in living cells using the Cell Titer-Glo® (Promega, USA) chemiluminescence cell viability assay kit.

[2] = system: TEL-BaF3-FLT3/ITD (stably expressing FLT3/ITD mutant activated kinase); test: Cell proliferation, Cell Titer-Glo, TEL-BaF3-FLT3/ITD; type: cell-based, mouse
Protocol: as §1, §2

pro-B cell BaF3 = test: Cell proliferation, Cell Titer-Glo, BaF3; type: cell-based; conditions: Mus musculus, incubated for 72 hours
Protocol: as §1, §2

[3] = system: U937 (expressing wild-type FLT3 gene); test: Cell proliferation, Cell Titer-Glo, U937; type: cell-based, human; conditions: Homo sapiens, U-937, 72 h, incubated for 72 hours; read-out: U937 IC50
Protocol: as §1, §2

[4] = system: OCI-AML-3 (expressing FLT3 A680V mutant gene); test: Cell proliferation, Cell Titer-Glo, OCI-AML3; type: cell-based; conditions: Homo sapiens, incubated for 72 hours
Protocol: as §1, §2

[5] = system: MOLM-13 (expressing FLT3/ITD mutant gene and wild-type FLT3 gene); test: Cell proliferation, Cell Titer-Glo, MOLM-13; type: cell-based; conditions: Homo sapiens, MOLM-13; incubated for 72 hours; read-out: MOLM-13 IC50
Protocol: as §1, §2

[6] = system: TEL-BaF3-BMX (stably expressing BMX kinase); test: Cell proliferation, Cell Titer-Glo, TEL-BaF3-BMX; type: cell-based; conditions: Mus musculus; incubated for 72 hours
Protocol: as §1, §2

[7] = system: TEL-BaF3-BLK (stably expressing BLK kinase); test: Cell proliferation, Cell Titer-Glo, TEL-BaF3-BLK; type: cell-based; conditions: Mus musculus; incubated for 72 hours
Protocol: as §1, §2

[8] = system: TEL-cKIT-BaF3 (stably expressing cKIT kinase); test: Cell proliferation, Cell Titer-Glo, TEL-cKIT-BaF3; type: cell-based; conditions: Mus musculus; incubated for 72 hours
Protocol: as §1, §2

[9] = MV4-11, incubated for 72 hours, read-out: MV4-11 IC50
[10] = Mus musculus, 72 h, incubated for 72 hours, read-out: TEL-BaF3-FLT3/ITD IC50

Row | SMILES | IC50 (pro-B cell BaF3) | IC50 [1, 9] | IC50 [2, 10] | IC50 [3] | also measured
1 | CC(C)C[C@@H](N)C(=O)N[C@H]1CC[C@H](n2nc(-c3ccc(Oc4ccccc4)cc3)c3c(N)ncnc32)CC1 (stereo in doubt) [Compound 85, (R)-2-amino-N-(4-(4-amino-3-(4-phenoxyphenyl)-1H-pyrazolo[3,4-d]pyrimidin-1-yl)trans-1,4-cyclohexyl)-4-methylpentanamide hydrochloride] | 950 nM |  |  |  | IC50 ([1]; MV4-11, 72 h, read-out: MV4-11 IC50 [μM]): 0.51 µM; IC50 ([2]; Mus musculus, 72 h, read-out: TEL-BaF3-FLT3/ITD IC50 [μM], incubated for 72 hours): 0.082 µM
2 | Nc1ncnc2c1c(-c1ccc(Oc3ccccc3)cc1)nn2[C@@H]1CCCN(C(=O)c2cccnc2)C1 [Compound 13, (R)-(3-(4-amino-(4-phenoxyphenyl)-1H-pyrazolo[3,4-d]pyrimidin-1-yl)piperidin-1-yl)(pyridin-3-yl)methanone] |  |  | 0.45 µM | > 10000 nM | 
3 | Nc1ncnc2c1c(-c1ccc(Oc3ccccc3)cc1)nn2[C@@H]1CCCN(C(=O)c2cncnc2)C1 [Compound 15, (R)-(3-(4-amino-(4-phenoxyphenyl)-1H-pyrazolo[3,4-d]pyrimidin-1-yl)piperidin-1-yl)(pyrimidin-5-yl)methanone] |  |  | 0.2 µM | > 10000 nM | 
4 | COC(=O)c1ccc(C(=O)N2CCC[C@@H](n3nc(-c4ccc(Oc5ccccc5)cc4)c4c(N)ncnc43)C2)cc1 [Compound 16, (R)-methyl 4-(3-(4-amino-(4-phenoxyphenyl)-1H-pyrazolo[3,4-d]pyrimidin-1-yl)piperidine-1-carbonyl)benzoate] |  |  | 6 µM | > 10000 nM | 
5 | Nc1ccc(C(=O)N2CCC[C@@H](n3nc(-c4ccc(Oc5ccccc5)cc4)c4c(N)ncnc43)C2)cn1 [Compound 17, (R)-(3-(4-amino-(4-phenoxyphenyl)-1H-pyrazolo[3,4-d]pyrimidin-1-yl)piperidin-1-yl)(6-aminopyridin-3-yl)methanone] |  |  | 0.88 µM | > 10000 nM | 
6 | Nc1ncnc2c1c(-c1ccc(Oc3ccccc3)cc1)nn2[C@@H]1CCCN(C(=O)c2ccc3c(c2)OCO3)C1 [Compound 18, (R)-(3-(4-amino-(4-phenoxyphenyl)-1H-pyrazolo[3,4-d]pyrimidin-1-yl)piperidin-1-yl)-(3,4-methylenedioxyphenyl)mathanone] |  |  | 1.8 µM | > 10000 nM | 
7 | Nc1ncnc2c1c(-c1ccc(Oc3ccccc3)cc1)nn2[C@@H]1CCCN(C(=O)C2CCNCC2)C1 [Compound 19, (R)-(3-(4-amino-(4-phenoxyphenyl)-1H-pyrazolo[3,4-d]pyrimidin-1-yl)piperidin-1-yl)-4-piperidinmethanone] |  |  | 0.79 µM | > 10000 nM | 
8 | Nc1ncc(C(=O)N2CCC[C@@H](n3nc(-c4ccc(Oc5ccccc5)cc4)c4c(N)ncnc43)C2)cn1 [Compound 21, (R)-(3-(4-amino-(4-phenoxyphenyl)-1H-pyrazolo[3,4-d]pyrimidin-1-yl)piperidin-1-yl)(2-aminopyrimidin-5-yl)methanone] |  |  | 0.33 µM | > 10000 nM | 
9 | C[C@@H](N)C(=O)N1CCC[C@@H](n2nc(-c3ccc(Oc4ccccc4)cc3)c3c(N)ncnc32)C1 [Compound 24, (R)-2-amino-1-((R)-3-(4-amino-(4-phenoxyphenyl)-1H-pyrazolo[3,4-d]pyrimidin-1-yl)piperidin-1-yl)propan-1-one] |  |  |  | 7800 nM | IC50 ([2]; incubated for 72 hours, read-out: TEL-BaF3-FLT3/ITD IC50): 0.67 µM
10 | CN1CCN(Cc2ccc(C(=O)N3CCC[C@@H](n4nc(-c5ccc(Oc6ccccc6)cc5)c5c(N)ncnc54)C3)cc2)CC1 [Compound 35, (R)-(3-(4-amino-(4-phenoxyphenyl)-1H-pyrazolo[3,4-d]pyrimidin-1-yl)piperidin-1-yl)(4-((4-methylpiperazin-1-yl)methyl)phenyl)methanone] |  | 0.28 µM | 0.07 µM | 1060 nM | IC50 [4]: 620 nM
11 | CN1CCN(CC(=O)N2CCC[C@@H](n3nc(-c4ccc(Oc5ccccc5)cc4)c4c(N)ncnc43)C2)CC1 [Compound 39] |  | 0.23 µM | 0.093 µM | 5870 nM | IC50 [4]: 4910 nM
12 | CN1CCN(CCC(=O)N2CCC[C@@H](n3nc(-c4ccc(Oc5ccccc5)cc4)c4c(N)ncnc43)C2)CC1 [Compound 58] | 3720 nM | 0.058 µM | 0.094 µM |  | IC50 [6]: 270 nM; IC50 [7]: 150 nM; IC50 [5]: 190 nM; IC50 [8]: 7400 nM
13 | CC(C)(C)OC(=O)NCC(=O)N1CCC[C@@H](n2nc(-c3ccc(Oc4ccccc4)cc3)c3c(N)ncnc32)C1 [Compound 59, (R)-tert-butyl 2-(3-(4-amino-3-(4-phenoxyphenyl)-1H-pyrazolo[3,4-d]pyrimidin-1-yl)piperidin-1-yl)-2-oxoethylcarbamate] | 9290 nM | 0.429 µM | 0.18 µM |  | IC50 [5]: 775 nM
14 | CCCCC(O)C(=O)N1CCC[C@@H](n2nc(-c3ccc(Oc4ccccc4)cc3)c3c(N)ncnc32)C1 (stereo partly drawn) [Compound 63] | 4690 nM | 0.35 µM | 0.15 µM |  | IC50 [5]: 720 nM
15 | CC(C)(C)OC(=O)NCC(=O)N1CC[C@@H](n2nc(-c3ccc(Oc4ccccc4)cc3)c3c(N)ncnc32)C1 [Compound 66, (R)-tert-butyl 2-(3-(4-amino-(4-phenoxyphenyl)-1H-pyrazolo[3,4-d]pyrimidin-1-yl)pyrrolidin-1-yl)-2-oxoethylcarbamate] | 6340 nM | 0.73 µM | 0.16 µM |  | IC50 [5]: 1600 nM
16 | CN(C)CC(=O)N1CCC(n2nc(-c3ccc(Oc4ccccc4)cc3)c3c(N)ncnc32)CC1 [Compound 72, 1-(4-(4-amino-(4-phenoxyphenyl)-1H-pyrazolo[3,4-d]pyrimidin-1-yl)piperidin-1-yl)-2-(dimethylamino)ethanone] | 3650 nM |  | 0.075 µM |  | 
17 | CC(C)C[C@@H](N)C(=O)N1CCC(n2nc(-c3ccc(Oc4ccccc4)cc3)c3c(N)ncnc32)CC1 [Compound 74, (R)-2-amino-1-(4-(4-amino-(4-phenoxyphenyl)-1H-pyrazolo[3,4-d]pyrimidin-1-yl)piperidin-1-yl)-4-methylpentan-1-one] | 590 nM |  | 0.075 µM |  | 

Further lines, with some results ahead:

Row | IC50 (pro-B cell BaF3) | IC50 [1, 9] | IC50 [2, 10] | IC50 [3] | SMILES | also measured
18 |  | 6.5 µM | 1.4 µM | > 10000 nM | Nc1ncnc2c1c(-c1ccc(Oc3ccccc3)cc1)nn2[C@@H]1CCCN(C(=O)C2CC2)C1 [Compound 1, (R)-(3-(4-amino-(4-phenoxyphenyl)-1H-pyrazolo[3,4-d]pyrimidin-1-yl)piperidin-1-yl)(cyclopropyl)methanone] | IC50 [4]: > 10000 nM
19 |  |  | 1.8 µM | > 10000 nM | Nc1ncnc2c1c(-c1ccc(Oc3ccccc3)cc1)nn2[C@@H]1CCCN(S(=O)(=O)C(F)(F)F)C1 [Compound 3, (R)-3-(4-phenoxyphenyl)-1-(1-((trifluoromethyl)sulfonyl)piperidin-3-yl)-1H-pyrazolo[3,4-d]pyrimidin-4-amine] | 
20 |  | 0.35 µM | 0.07 µM | > 10000 nM | CC(=O)N1CCC[C@@H](n2nc(-c3ccc(Oc4ccccc4)cc3)c3c(N)ncnc32)C1 [Compound 34] | IC50 [4]: 3560 nM
21 |  | 0.67 µM | 0.15 µM | 8960 nM | Nc1ncnc2c1c(-c1ccc(Oc3ccccc3)cc1)nn2[C@@H]1CCCN(C(=O)CCCl)C1 [Compound 36] | IC50 [4]: > 10000 nM
22 |  | 0.23 µM | 0.15 µM | > 10000 nM | CC(Br)C(=O)N1CCC[C@@H](n2nc(-c3ccc(Oc4ccccc4)cc3)c3c(N)ncnc32)C1 (stereo partly drawn) [Compound 37] | IC50 [4]: 1090 nM
23 |  | 0.97 µM | 0.12 µM | 7930 nM | CC(Cl)C(=O)N1CCC[C@@H](n2nc(-c3ccc(Oc4ccccc4)cc3)c3c(N)ncnc32)C1 (stereo partly drawn) [Compound 38] | IC50 [4]: 6510 nM
24 | > 10000 nM | 0.24 µM | 0.49 µM |  | NC(=O)CC[C@H](N)C(=O)N1CCC[C@@H](n2nc(-c3ccc(Oc4ccccc4)cc3)c3c(N)ncnc32)C1 [Compound 56] | IC50 [5]: 710 nM
25 | 7210 nM | 0.948 µM | 0.48 µM |  | CC(C)C[C@@H](O)C(=O)N1CCC[C@@H](n2nc(-c3ccc(Oc4ccccc4)cc3)c3c(N)ncnc32)C1 [Compound 61, (R)-1-((R)-3-(4-amino-(4-phenoxyphenyl)-1H-pyrazolo[3,4-d]pyrimidin-1-yl)piperidin-1-yl)-2-hydroxyl-4-methylpentan-1-one] | IC50 [5]: 2120 nM
26 | 8460 nM | 0.38 µM | 0.41 µM |  | NCCCCC(=O)N1CCC[C@@H](n2nc(-c3ccc(Oc4ccccc4)cc3)c3c(N)ncnc32)C1 [Compound 62] | IC50 [5]: 1200 nM
27 | > 10000 nM | 0.42 µM | 0.13 µM |  | CS(=O)(=O)N1CC[C@@H](n2nc(-c3ccc(Oc4ccccc4)cc3)c3c(N)ncnc32)C1 [Compound 67, (R)-1-(1-(methylsulfonyl)pyrrolidin-3-yl)-3-(4-phenoxyphenyl)-1H-pyrazolo[3,4-d]pyrimidin-4-amine] | IC50 [5]: 1460 nM
28 | > 10000 nM |  | 0.19 µM |  | CS(=O)(=O)N1CCC(n2nc(-c3ccc(Oc4ccccc4)cc3)c3c(N)ncnc32)CC1 [Compound 73, 1-(1-(methylsulfonyl)piperidin-4-yl)-3-(4-phenoxyphenyl)-1H-pyrazolo[3,4-d]pyrimidin-4-amine] | 
